Measured values published in patent publication US9072775B2, “Fluorescent emulsions for optical imaging” (priority 2007, dated 2015).
Values belong to the compound of their own block, whether it stands above or below them.

Legend:
[1] = in ethanol; cited from earlier work
[2] = Fluorescence lifetime from time-resolved fluorescence decay; format: physicochemical; conditions: pulsed excitation 740 nm
Experimental: The fluorescence decays of the fluorophore free in solution in methanol or encapsulated in the lipid nanoparticles of oil-in-water emulsion type, in suspension in PBS (10 mM, pH 7.3), were measured on a measuring system using a neodymium-vanadate, continuous-wave laser [Millennia Pro, Spectra-Physics, USA], (532 nm, 5 W)-pumped sapphire-titanium laser [Tsunami, Spectra-Physics, USA] (80 MHz, 100 femtoseconds), tunable to a wavelength of 700 nm to 1000 nm. Depending on the operating mode of this device, the laser is injected into a multimode optical fiber, used as excitatory fiber for the sample to be studied. A second (detection) optical fiber collects the fluorescence emitted or the laser scattering via a filtering system. The signal is measured by means of a photomultiplier tube [Hamamatsu, Japan] coupled to a TCSPC counting board [Becker&Hickel, Germany]. The latter is controlled by means of a sampled part (4%) of the laser signal (pulse train) via a rapid photodiode (PD) [Becker&Hickel, Germany] before injection into the optical fiber.
The measurements were carried out using a pulsed excitation wavelength of 740 nm. The fluorescence intensity (in arbitrary units) was measured in order to plot curves reflecting the fluorescence decay (fluorescence intensity (arbitrary units) expressed as a function of time (in ps)); curves not represented. […]

[3] = Absorption and emission spectra; format: physicochemical; conditions: In solution in MeOH
Experimental: (§1) It is common practice to determine a quantum yield relative to that of a reference standard, by the techniques known to those skilled in the art. The quantum yield of this formulation was calculated by comparison with a reference standard sample (Nile Blue perchlorate in ethanol, sold by Invitrogen) having a known quantum yield value equal to 0.27. The same measurements (carried out using a Varian spectrophotometer, model Cary 300 and a Perkin Elmer spectrofluorimeter, model LS 50) and calculations were carried out for a solution of DiD fluorophore in methanol (MeOH).

[4] = Quantum yield of fluorescence relative to a reference standard; format: physicochemical; conditions: In solution in MeOH; reference Nile Blue perchlorate in ethanol
Experimental: The quantum yield of fluorescence (Φ) is expressed by the following equation: (Φ)=(number of photons emitted)/(number of photons absorbed).
as §1

SMILES: CC[N+](CC)=c1ccc2nc3c(cc(N)c4ccccc43)oc-2c1.[O-][Cl+3]([O-])([O-])[O-] [Nile Blue perchlorate]
known quantum yield value of reference standard [1]: 0.27

Lifetime of the DiR fluorophore in solution in methanol [2]: 800 ps
SMILES: CCCCCCCCCCCCCCCCCCN1/C(=C/C=C/C=C/C=C/C2=[N+](CCCCCCCCCCCCCCCCCC)c3ccccc3C2(C)C)C(C)(C)c2ccccc21.[I-] [DiR, 1,1′-dioctadecyl-3,3,3′,3′-tetramethylindotricarbocyanin iodide]

SMILES: CCCCCCCCCCCCCCCCCCN1C(=CC=CC=CC2=[N+](CCCCCCCCCCCCCCCCCC)c3ccccc3C2(C)C)C(C)(C)c2ccccc21.[O-][Cl+3]([O-])([O-])[O-] [DiD, 1,1′-dioctadecyl-3,3,3′,3′-tetramethylindodicarbocyanin perchlorate]
Emission [3]: 665 nm | Max. absorption [3]: 644 nm | Quantum yield [4]: 0.29
